Results taken from US5597899A, “Tumor necrosis factor muteins” (Hoffmann-La Roche Inc., priority 1993, dated 1997).

Columns and labels:
human TNFR-p55 = test: Solid phase radioligand competition binding assay, E. coli lysates, TNFR-p55; conditions: for Dilution of E. coli Lysate for 50% Inhibition of 125I-TNFα Binding (ID50) TNFR-p55: 10-fold serial dilutions 10^-2 to 10^-7, < = inhibition but below 50% at 1:100, << = no measurable inhibition at 1:100; for ID50 TNFR-p55 / ID50 TNFR-p75: ratio = 1 no receptor selectivity, > 1 TNFR-p55 selectivity, < 1 TNFR-p75 selectivity
Method: (§1) After 20 min incubation at room temperature 50 μl of 1M MgCl2, 20 μl of 5 mg/ml DNaseI, 50 μl of 5M NaCl and 50 μl of 10% NP-40 were added and the mixture was further incubated at room temperature for 15 min. 0.5 ml of the lysate clarified by centrifugation at 13'000 rpm for 5 min was subjected to ammonium sulfate precipitation (25%-70% cut). The 70% ammonium sulfat pellet was dissolved in 0.2 ml PBS and analyzed by sodium dodecyl sulfate polyacrylamide gel electrophoresis (SDS-PAGE) to confirm presence and approximate amount of the recombinant proteins.
TNFα was labelled by the Iodogen method (Pierce Chemical Company) to a specific activity of about 10-30 μCi/μg. The volume was 100 μl/well and each lysate dilution was assayed in duplicate or triplicate. After three hours at room temperature the wells were thoroughly washed with PBS and counted in a γ-counter. The results are given in Table 2 for lysates comprising the muteins indicated therein.

human TNFR-p75 = test: Solid phase radioligand competition binding assay, E. coli lysates, TNFR-p75; conditions: 10-fold serial dilutions 10^-2 to 10^-7, < = inhibition but below 50% at 1:100, << = no measurable inhibition at 1:100
Method: as §1, with “10 ml suspensions of E. coli cells transformed and induced as described in Examples I and II were centrifuged at 4'000 rpm for 10 min and resuspended in 0.9 ml of lysis buffer (10 mM Tris-HCl pH 8.0, 5 mM EDTA, 2 mM PMSF, 10 mM benzamidine, 200 units/ml aprotinine and 0.1 mg/ml lysozyme). After” for “After”
96 well microtiter plates were coated with recombinant human […] TNFR-p75-hγ3 and TNFR-p55-hγ3 fusion proteins (extracellular portion of the receptor fused to the Fc part of human IgG3) at a concentration of 0.3 μg/ml and 0.1 μg/ml, respectively, in phosphate buffered saline (PBS, 100 μl/well, overnight at 4° C.) [Loetscher, H. et al. J. Biol. Chem. 266, 18324-18329 (1991); Lesslauer, W. et al. Eur. J. Immunol. 21, 2883-2886 (1991)]. After blocking with blocking buffer (50 mM Tris pH 7.4, 140 mM NaCl, 5 mM EDTA, 0.02% NAN3, 1% defatted milk powder) the microtiter plate was washed with PBS and incubated in blocking buffer containing 0.1% defatted milk powder with 10 ng/ml human wild-type ^125 I-TNFα and various dilutions of E. coli lysates ranging from 10^-2 to 10^-7 (10-fold serial dilutions). TNFα was labelled by the Iodogen method (Pierce Chemical Company) to a specific activity of about 10-30 μCi/μg. The volume was 100 μl/well and each lysate dilution was assayed in duplicate or triplicate. After three hours at room temperature the wells were thoroughly washed with PBS and counted in a γ-counter. The results are given in Table 2 for lysates comprising the muteins indicated therein.

Substance | Dilution of E. coli Lysate for 50% Inhibition of 125I-TNFα Binding (ID50) TNFR-p55 (human TNFR-p55) | ID50 TNFR-p55 / ID50 TNFR-p75 (human TNFR-p55) | Dilution of E. coli Lysate for 50% Inhibition of 125I-TNFα Binding (ID50) TNFR-p75 (human TNFR-p75)
N34E: human TNFα mutein N34E | 330 fold | > 3.3 | < 100 fold
F144R: human TNFα mutein F144R | 2,500 fold | 7.6 | 330 fold
Y87L: human TNFα mutein Y87L | < 100 fold | 1 | < 100 fold
F144W: human TNFα mutein F144W | 400 fold | 2.2 | 180 fold
E146R: human TNFα mutein E146R | 6,670 fold | > 67 | < 100 fold
D143W: human TNFα mutein D143W | < 100 fold | < 1 | 100 fold
L75R: human TNFα mutein L75R | < 100 fold | 1 | < 100 fold
Q67K: human TNFα mutein Q67K | 25,000 fold | 0.5 | 50,000 fold
N34M: human TNFα mutein N34M | < 100 fold | > 1 | < 100 fold
N34T: human TNFα mutein N34T | 1,000 fold | > 10 | < 100 fold
S147L: human TNFα mutein S147L | 2,000 fold | 0.6 | 3,330 fold
R31E: human TNFα mutein R31E | 3,470 fold | 19.3 | 180 fold
A145V: human TNFα mutein A145V | 1,000 fold | 0.5 | 2,000 fold
Y87E: human TNFα mutein Y87E | < 100 fold | > 1 | < 100 fold
F144Y: human TNFα mutein F144Y | 2,860 fold | 1 | 2,860 fold
K65W: human TNFα mutein K65W | 500 fold | 0.2 | 3,330 fold
D143F: human TNFα mutein D143F | < 100 fold | < 0.4 | 250 fold
S86D: human TNFα mutein S86D | 6,670 fold | 6.7 | 1,000 fold
